Source: patent US12258328B2, “6-membered heteroaryl-containing aminopyridine compounds as EGFR inhibitors” (YUHAN CORPORATION, priority 2021, dated 2025)
Read-outs that look alike come from different tables or passages of the source.

Columns and labels:
EGFR L858R/T790M/C797S = EGFR L858R/T790M/C797S (Homo sapiens, UniProt P00533, C797S/L858R/T790M); assay: Biochemical EGFR kinase assay (Lance Ultra TR-FRET), triple mutant L858R/T790M/C797S
Protocol: (§1) Biochemical EGFR kinase assays were conducted using Lance Ultra time-resolved fluorescence resonance energy transfer (TR-FRET) technology from Perkin-Elmer. Compounds of the invention were initially diluted to 20 mM in 100% DMSO for storage and made into kinase buffer solution to create a compound concentration ranging from 0.003 μM and 10 μM.
(§2) Each kinase reactions were incubated at room temperature for 1 hour and then stopped by the addition of 4 μL of stop solution (10 mM EDTA). The specific Europium-labeled-anti-phosphopeptide antibody (PerkinElmer, AD0069) diluted in LANCE detection buffer was then added to a final concentration of 2 nM. After 60 minutes incubation at room temperature the LANCE signal was measured on an EnVision Multilabel Reader (Perkin-Elmer). Excitation wavelength was set at 320 nm and emission monitored at 615 nm (donor) and 665 nm (acceptor). The IC50 values were determined using GraphPad prism software (GraphPad Software, Inc., San Diego, CA, USA).

EGFR L858R/C797S = EGFR L858R/C797S (Homo sapiens, UniProt P00533, C797S/L858R); assay: Biochemical EGFR kinase assay (Lance Ultra TR-FRET), double mutant L858R/C797S
Protocol: as §1, §2

EGFR del19/T790M/C797S = EGFR del19/T790M/C797S (Homo sapiens, UniProt P00533, C797S/DEL746-750/T790M); assay: Biochemical EGFR kinase assay (Lance Ultra TR-FRET), triple mutant del19/T790M/C797S
Protocol: as §1, §2

EGFR del19/C797S = EGFR del19/C797S (Homo sapiens, UniProt P00533, C797S/DEL746-750); assay: Biochemical EGFR kinase assay (Lance Ultra TR-FRET), double mutant del19/C797S
Protocol: as §1, §2

EGFR wildtype = EGFR wildtype (Homo sapiens, UniProt P00533); assay: Biochemical EGFR kinase assay (Lance Ultra TR-FRET), wildtype
Protocol: as §1, §2

[1] = IC50 L858R/T790M/C797S (nM) 100 μM ATP, 100 μM ATP
[2] = Km ATP, read-out: IC50 L858R/T790M/C797S (nM) Km ATP
[3] = IC50 L858R/C797S (nM) 100 μM ATP, 100 μM ATP
[4] = Km ATP, read-out: IC50 L858R/C797S (nM) Km ATP
[5] = IC50 del19/T790M/C797S (nM) 100 μM ATP, 100 μM ATP
[6] = Km ATP, read-out: IC50 del19/T790M/C797S (nM) Km ATP
[7] = IC50 del19/C797S (nM) 100 μM ATP, 100 μM ATP
[8] = Km ATP, read-out: IC50 del19/C797S (nM) Km ATP
[9] = IC50 WT (nM) 100 μM ATP, 100 μM ATP
[10] = Km ATP, read-out: IC50 WT (nM) Km ATP
[11] = ATP at Km, read-out: IC50 L858R/T790M/C797S, Km ATP
[12] = ATP at Km, read-out: IC50 del19/T790M/C797S, Km ATP
[13] = ATP at Km, read-out: IC50 del19/C797S, Km ATP
[14] = ATP at Km, read-out: IC50 WT, Km ATP
[15] = ATP at Km, read-out: IC50 L858R/C797S, Km ATP
[16] = IC50 del19/T790M/C797S, 100 μM ATP

Chain of EGFR L858R/T790M/C797S (P00533 25-1210 T790M/C797S/L858R): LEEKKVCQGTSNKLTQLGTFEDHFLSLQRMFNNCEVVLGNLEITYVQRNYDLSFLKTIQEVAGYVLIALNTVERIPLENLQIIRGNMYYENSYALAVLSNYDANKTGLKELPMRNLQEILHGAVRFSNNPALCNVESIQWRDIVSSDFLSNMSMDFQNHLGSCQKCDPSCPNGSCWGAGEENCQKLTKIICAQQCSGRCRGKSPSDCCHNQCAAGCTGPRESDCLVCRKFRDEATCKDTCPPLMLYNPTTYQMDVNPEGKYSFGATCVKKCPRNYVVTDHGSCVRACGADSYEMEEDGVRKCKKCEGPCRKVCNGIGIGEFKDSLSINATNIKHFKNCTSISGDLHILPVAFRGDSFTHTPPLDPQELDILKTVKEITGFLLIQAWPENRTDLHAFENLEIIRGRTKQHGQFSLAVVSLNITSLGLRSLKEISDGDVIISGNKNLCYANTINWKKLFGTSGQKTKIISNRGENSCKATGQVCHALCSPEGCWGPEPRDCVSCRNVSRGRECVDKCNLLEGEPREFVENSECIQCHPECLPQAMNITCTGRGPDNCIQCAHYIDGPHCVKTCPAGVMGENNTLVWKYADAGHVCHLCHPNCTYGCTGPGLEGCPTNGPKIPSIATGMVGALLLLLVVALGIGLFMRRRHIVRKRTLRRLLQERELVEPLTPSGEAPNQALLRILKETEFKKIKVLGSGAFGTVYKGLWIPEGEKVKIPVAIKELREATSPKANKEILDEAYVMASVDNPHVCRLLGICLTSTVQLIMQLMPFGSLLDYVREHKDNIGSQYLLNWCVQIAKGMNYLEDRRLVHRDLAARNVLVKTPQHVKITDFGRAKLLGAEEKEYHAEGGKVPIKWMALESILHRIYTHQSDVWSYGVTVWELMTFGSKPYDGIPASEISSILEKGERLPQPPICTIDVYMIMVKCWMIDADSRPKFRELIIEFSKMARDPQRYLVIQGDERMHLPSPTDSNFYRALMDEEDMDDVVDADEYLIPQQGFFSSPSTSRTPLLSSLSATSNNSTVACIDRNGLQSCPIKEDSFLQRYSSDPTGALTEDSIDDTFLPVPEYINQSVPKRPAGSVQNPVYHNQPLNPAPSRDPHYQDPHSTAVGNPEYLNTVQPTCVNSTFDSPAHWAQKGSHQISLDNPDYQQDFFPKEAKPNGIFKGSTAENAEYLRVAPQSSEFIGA
Chain of EGFR del19/C797S (P00533 with tags, fused parts or gaps DEL746-750/C797S): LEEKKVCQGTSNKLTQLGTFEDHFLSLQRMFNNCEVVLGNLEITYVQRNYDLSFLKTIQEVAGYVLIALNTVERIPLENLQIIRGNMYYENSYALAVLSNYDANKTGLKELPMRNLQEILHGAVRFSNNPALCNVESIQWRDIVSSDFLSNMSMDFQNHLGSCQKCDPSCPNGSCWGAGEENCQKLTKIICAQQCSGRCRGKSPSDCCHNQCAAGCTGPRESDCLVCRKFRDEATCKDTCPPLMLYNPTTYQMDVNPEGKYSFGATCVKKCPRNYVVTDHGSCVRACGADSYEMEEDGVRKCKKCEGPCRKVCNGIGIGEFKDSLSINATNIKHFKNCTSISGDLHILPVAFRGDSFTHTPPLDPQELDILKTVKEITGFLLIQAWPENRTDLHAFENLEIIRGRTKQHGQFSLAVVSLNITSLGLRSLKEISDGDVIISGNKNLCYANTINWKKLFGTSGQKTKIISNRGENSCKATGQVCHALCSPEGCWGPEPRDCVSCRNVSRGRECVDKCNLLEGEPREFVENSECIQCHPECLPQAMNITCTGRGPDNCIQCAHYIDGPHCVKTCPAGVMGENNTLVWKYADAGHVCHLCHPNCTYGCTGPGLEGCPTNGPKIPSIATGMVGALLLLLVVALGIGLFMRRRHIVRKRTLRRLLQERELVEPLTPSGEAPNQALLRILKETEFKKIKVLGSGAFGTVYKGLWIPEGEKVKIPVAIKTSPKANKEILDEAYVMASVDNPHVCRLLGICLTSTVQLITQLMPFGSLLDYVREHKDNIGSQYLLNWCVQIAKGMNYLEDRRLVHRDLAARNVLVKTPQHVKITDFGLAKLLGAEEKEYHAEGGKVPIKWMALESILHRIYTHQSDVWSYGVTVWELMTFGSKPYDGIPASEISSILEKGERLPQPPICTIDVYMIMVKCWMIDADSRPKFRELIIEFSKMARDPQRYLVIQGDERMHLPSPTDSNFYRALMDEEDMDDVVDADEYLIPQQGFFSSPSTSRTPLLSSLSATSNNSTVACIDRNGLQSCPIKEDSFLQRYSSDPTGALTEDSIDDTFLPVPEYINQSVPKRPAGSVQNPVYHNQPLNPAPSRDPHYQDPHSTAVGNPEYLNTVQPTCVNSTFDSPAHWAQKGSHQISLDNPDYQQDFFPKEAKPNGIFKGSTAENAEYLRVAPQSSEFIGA
Chain of EGFR L858R/C797S (P00533 25-1210 C797S/L858R): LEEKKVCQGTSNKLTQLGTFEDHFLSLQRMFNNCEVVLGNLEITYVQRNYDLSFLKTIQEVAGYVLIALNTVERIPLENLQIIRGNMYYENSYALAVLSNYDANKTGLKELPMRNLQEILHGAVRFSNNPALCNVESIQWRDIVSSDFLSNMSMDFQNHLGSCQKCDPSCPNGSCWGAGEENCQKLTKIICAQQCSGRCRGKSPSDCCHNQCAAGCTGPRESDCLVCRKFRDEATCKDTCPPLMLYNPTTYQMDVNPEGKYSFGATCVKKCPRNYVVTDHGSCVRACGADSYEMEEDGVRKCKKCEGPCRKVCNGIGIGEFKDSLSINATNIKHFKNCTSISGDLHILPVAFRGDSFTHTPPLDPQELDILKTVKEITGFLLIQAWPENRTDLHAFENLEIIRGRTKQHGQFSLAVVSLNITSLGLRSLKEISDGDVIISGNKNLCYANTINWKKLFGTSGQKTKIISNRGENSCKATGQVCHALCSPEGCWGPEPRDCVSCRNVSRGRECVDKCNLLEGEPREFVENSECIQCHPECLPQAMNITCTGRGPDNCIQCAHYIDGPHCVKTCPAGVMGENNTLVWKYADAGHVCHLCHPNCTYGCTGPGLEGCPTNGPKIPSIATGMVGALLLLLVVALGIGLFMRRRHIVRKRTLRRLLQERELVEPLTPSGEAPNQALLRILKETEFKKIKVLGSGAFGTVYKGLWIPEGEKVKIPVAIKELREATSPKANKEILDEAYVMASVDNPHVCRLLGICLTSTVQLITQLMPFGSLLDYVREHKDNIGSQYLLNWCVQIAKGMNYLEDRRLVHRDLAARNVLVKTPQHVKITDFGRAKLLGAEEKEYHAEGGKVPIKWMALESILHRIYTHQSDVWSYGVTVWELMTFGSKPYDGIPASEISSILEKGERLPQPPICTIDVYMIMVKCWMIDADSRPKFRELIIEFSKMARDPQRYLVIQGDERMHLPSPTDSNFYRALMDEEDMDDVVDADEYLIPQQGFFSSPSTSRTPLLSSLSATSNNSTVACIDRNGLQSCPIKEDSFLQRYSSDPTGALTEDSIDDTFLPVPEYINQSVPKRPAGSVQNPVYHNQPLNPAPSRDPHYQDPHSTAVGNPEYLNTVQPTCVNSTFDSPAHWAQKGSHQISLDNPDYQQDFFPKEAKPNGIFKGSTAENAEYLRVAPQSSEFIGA
Chain of EGFR wildtype (P00533 25-1210): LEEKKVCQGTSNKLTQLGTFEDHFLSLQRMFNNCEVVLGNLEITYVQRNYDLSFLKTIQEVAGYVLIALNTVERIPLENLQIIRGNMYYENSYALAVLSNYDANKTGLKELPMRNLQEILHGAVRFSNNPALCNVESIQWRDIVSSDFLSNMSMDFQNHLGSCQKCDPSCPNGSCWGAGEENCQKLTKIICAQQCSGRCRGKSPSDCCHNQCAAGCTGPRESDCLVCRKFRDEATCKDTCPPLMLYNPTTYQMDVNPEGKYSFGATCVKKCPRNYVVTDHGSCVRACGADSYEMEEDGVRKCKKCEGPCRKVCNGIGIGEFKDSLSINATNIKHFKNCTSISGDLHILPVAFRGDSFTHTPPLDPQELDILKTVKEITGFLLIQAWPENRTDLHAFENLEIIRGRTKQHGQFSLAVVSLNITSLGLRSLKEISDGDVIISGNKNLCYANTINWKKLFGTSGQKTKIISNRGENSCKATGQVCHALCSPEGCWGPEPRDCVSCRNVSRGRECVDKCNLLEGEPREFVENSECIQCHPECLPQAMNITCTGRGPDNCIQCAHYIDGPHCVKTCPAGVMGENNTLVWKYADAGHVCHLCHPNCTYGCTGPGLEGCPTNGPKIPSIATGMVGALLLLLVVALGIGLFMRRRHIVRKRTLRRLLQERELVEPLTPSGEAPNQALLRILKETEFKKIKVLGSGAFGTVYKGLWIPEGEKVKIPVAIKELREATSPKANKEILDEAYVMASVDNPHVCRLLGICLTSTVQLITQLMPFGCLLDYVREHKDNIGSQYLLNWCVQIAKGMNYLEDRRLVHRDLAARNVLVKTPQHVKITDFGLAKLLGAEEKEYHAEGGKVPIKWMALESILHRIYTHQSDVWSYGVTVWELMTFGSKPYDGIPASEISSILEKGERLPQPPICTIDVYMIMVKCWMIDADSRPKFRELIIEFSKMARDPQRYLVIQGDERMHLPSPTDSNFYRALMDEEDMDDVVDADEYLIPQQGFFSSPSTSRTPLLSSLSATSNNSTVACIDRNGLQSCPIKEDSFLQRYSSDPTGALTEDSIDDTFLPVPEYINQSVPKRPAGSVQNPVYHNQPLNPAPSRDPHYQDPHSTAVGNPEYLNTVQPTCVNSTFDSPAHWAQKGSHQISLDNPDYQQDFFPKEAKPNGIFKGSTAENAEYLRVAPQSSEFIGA

Row | Structure (SMILES) | IC50 (EGFR L858R/T790M/C797S; [1]) | IC50 (EGFR L858R/T790M/C797S; [2]) | IC50 (EGFR L858R/C797S; [3]) | IC50 (EGFR L858R/C797S; [4]) | IC50 (EGFR del19/T790M/C797S; [5]) | IC50 (EGFR del19/T790M/C797S; [6]) | IC50 (EGFR del19/C797S; [7]) | IC50 (EGFR del19/C797S; [8]) | IC50 (EGFR wildtype; [9]) | IC50 (EGFR wildtype; [10]) | IC50 (EGFR del19/T790M/C797S; [12]) | other results
1 | CN1CCN(Cc2ccc(-c3cnc(Nc4ccnc(-c5cnn(S(=O)(=O)C6CC6)c5)n4)cc3N3CCC(C)(CO)CC3)nc2)CC1 [Example 1, (1-(6′-((2-(1-(Cyclopropylsulfonyl)-1H-pyrazol-4-yl)pyrimidin-4-yl)amino)-5-((4-methylpiperazin-1-yl)methyl)-[2,3′-bipyridin]-4′-yl)-4-methylpiperidin-4-yl)methanol] | 1.3 nM | 0.4 nM | 223 nM | 10.5 nM | 0.8 nM | 1.2 nM | 52.3 nM | 37.5 nM | > 10000 nM | 212 nM | – | –
2 | CN1CCN(Cc2ccc(-c3cnc(Nc4ccnc(-c5cnn(S(=O)(=O)C6CC6)c5)n4)cc3N[C@H]3CC[C@@](C)(O)CC3)nc2)CC1 [Example 9, (1s,4s)-4-((6′-((2-(1-(Cyclopropylsulfonyl)-1H-pyrazol-4-yl)pyrimidin-4-yl)amino)-5-((4-methylpiperazin-1-yl)methyl)-[2,3′-bipyridin]-4′-yl)amino)-1-methylcyclohexan-1-ol] | 0.3 nM | 0.1 nM | 1.9 nM | 0.2 nM | 0.1 nM | – | 0.7 nM | 0.2 nM | 167 nM | 1 nM | – | –
3 | CN1CCN(Cc2ccc(-c3cnc(Nc4ccnc(-c5cnn(S(=O)(=O)C6CC6)c5)n4)cc3N[C@H]3CC[C@](O)(CO)CC3)nc2)CC1 [Example 11, (1s,4s)-4-((6′-((2-(1-(Cyclopropylsulfonyl)-1H-pyrazol-4-yl)pyrimidin-4-yl)amino)-5-((4-methylpiperazin-1-yl)methyl)-[2,3′-bipyridin]-4′-yl)amino)-1-(hydroxymethyl)cyclohexan-1-ol] | 0.2 nM | 0.1 nM | 2.1 nM | 0.4 nM | 0.1 nM | – | 0.4 nM | 0.2 nM | 586 nM | 1.4 nM | – | –
4 | CN1CCC(Oc2cnc(-c3cnc(Nc4ccnc(-c5cnn(S(=O)(=O)C6CC6)c5)n4)cc3N[C@H]3CC[C@@](C)(O)CC3)cn2)CC1 [Example 145, (1s,4s)-4-((2-((2-(1-(Cyclopropylsulfonyl)-1H-pyrazol-4-yl)pyrimidin-4-yl)amino)-5-(5-((1-methylpiperidin-4-yl)oxy)pyrazin-2-yl)pyridin-4-yl)amino)-1-methylcyclohexan-1-ol] | – | 0.03 nM | – | 0.1 nM | – | 0.1 nM | – | 0.3 nM | – | – | – | –
5 | CC(C)(O)c1ccc(-c2cnc(Nc3ccnc(-c4cnn(S(=O)(=O)C5CC5)c4)n3)cc2NC2CCN(CCF)CC2)nc1 [Example 176, 2-(6′-((2-(1-(Cyclopropylsulfonyl)-1H-pyrazol-4-yl)pyrimidin-4-yl)amino)-4′-((1-(2-fluoroethyl)piperidin-4-yl)amino)-[2,3′-bipyridin]-5-yl)propan-2-ol] | – | – | – | – | – | – | – | – | – | – | 0.2 nM | IC50 (EGFR L858R/T790M/C797S; [11]): 0.4 nM; IC50 (EGFR del19/C797S; [13]): 5.5 nM; IC50 (EGFR wildtype; [14]): 43.4 nM
6 | C[C@]1(O)CC[C@@H](Nc2cc(Nc3ccnc(-c4cnn(S(=O)(=O)C5CC5)c4)n3)ncc2-c2ccc(S(=O)(=O)N3CCOCC3)cn2)CC1 [Example 182, (1s,4s)-4-((6′-((2-(1-(Cyclopropylsulfonyl)-1H-pyrazol-4-yl)pyrimidin-4-yl)amino)-5-(morpholinosulfonyl)-[2,3′-bipyridin]-4′-yl)amino)-1-methylcyclohexan-1-ol] | – | – | – | – | – | – | – | – | – | – | 2.9 nM | IC50 (EGFR L858R/C797S; [15]): 0.9 nM; IC50 (EGFR L858R/C797S; IC50 L858R/C797S, 100 μM ATP): 3.5 nM; IC50 (EGFR del19/T790M/C797S; [16]): 6.4 nM; IC50 (EGFR del19/C797S; IC50 del19/C797S, 100 μM ATP): 3.7 nM; IC50 (EGFR wildtype; IC50 WT, 100 μM ATP): > 10000 nM
7 | CC(C)(O)[C@H]1CC[C@@H](Nc2cc(Nc3ccnc(-c4cnn(S(=O)(=O)C5CC5)c4)n3)ncc2-c2ccc(OCCO)cn2)CC1 [Example 207, 2-((1s,4s)-4-((6′-((2-(1-(Cyclopropylsulfonyl)-1H-pyrazol-4-yl)pyrimidin-4-yl)amino)-5-(2-hydroxyethoxy)-[2,3′-bipyridin]-4′-yl)amino)cyclohexyl)propan-2-ol] | – | – | – | – | – | – | – | – | – | – | 1.3 nM | IC50 (EGFR L858R/T790M/C797S; [11]): 0.3 nM; IC50 (EGFR L858R/T790M/C797S; IC50 L858R/T790M/C797S, 100 μM ATP): 0.8 nM; IC50 (EGFR L858R/C797S; [15]): 1 nM; IC50 (EGFR L858R/C797S; IC50 L858R/C797S, 100 μM ATP): 14 nM; IC50 (EGFR del19/T790M/C797S; [16]): 1.6 nM; IC50 (EGFR wildtype; [14]): 3.8 nM; IC50 (EGFR wildtype; IC50 WT, 100 μM ATP): 1790 nM
8 | CC(C)Nc1cc(Nc2ccnc(-c3cnn(S(=O)(=O)C4CC4)c3)n2)ncc1-c1ccc(C(C)(O)C(F)(F)F)cn1 (stereo not shown) [Example 295, 2-(6′-((2-(1-(Cyclopropylsulfonyl)-1H-pyrazol-4-yl)pyrimidin-4-yl)amino)-4′-(isopropylamino)-[2,3′-bipyridin]-5-yl)-1,1,1-trifluoropropan-2-ol] | – | – | – | – | – | – | – | – | – | – | 10.4 nM | IC50 (EGFR L858R/C797S; [15]): 26.5 nM; IC50 (EGFR del19/C797S; [13]): 49.2 nM; IC50 (EGFR wildtype; [14]): 44.7 nM
9 | CN1CCC(Oc2ccc(-c3cnc(Nc4nc(-c5cnn(S(=O)(=O)C6CC6)c5)ncc4F)cc3N[C@H]3CC[C@@](C)(O)CC3)nc2)CC1 [Example 300, (1s,4s)-4-((6′-((2-(1-(Cyclopropylsulfonyl)-1H-pyrazol-4-yl)-5-fluoropyrimidin-4-yl)amino)-5-((1-methylpiperidin-4-yl)oxy)-[2,3′-bipyridin]-4′-yl)amino)-1-methylcyclohexan-1-ol] | – | – | – | – | – | – | – | – | – | – | 0.3 nM | IC50 (EGFR L858R/T790M/C797S; [11]): 0.1 nM; IC50 (EGFR L858R/C797S; [15]): 0.2 nM; IC50 (EGFR del19/C797S; [13]): 0.4 nM

Further lines, with some results ahead:

Row | IC50 (EGFR L858R/T790M/C797S; [1]) | IC50 (EGFR L858R/T790M/C797S; [2]) | IC50 (EGFR L858R/C797S; [3]) | IC50 (EGFR L858R/C797S; [4]) | IC50 (EGFR del19/T790M/C797S; [5]) | IC50 (EGFR del19/T790M/C797S; [6]) | IC50 (EGFR del19/C797S; [7]) | IC50 (EGFR del19/C797S; [8]) | IC50 (EGFR wildtype; [9]) | IC50 (EGFR wildtype; [10]) | IC50 (EGFR del19/T790M/C797S; [12]) | Structure (SMILES) | other results
10 | 0.1 nM | – | 6.5 nM | 0.3 nM | 0.1 nM | 0.2 nM | 0.4 nM | 0.2 nM | > 10000 nM | – | – | C[C@]1(O)CC[C@@H](Nc2cc(Nc3ccnc(-c4cnn(S(=O)(=O)C5CC5)c4)n3)ncc2-c2ccc(F)cn2)CC1 [Example 6, (1s,4s)-4-((6′-((2-(1-(Cyclopropylsulfonyl)-1H-pyrazol-4-yl)pyrimidin-4-yl)amino)-5-fluoro-[2,3′-bipyridin]-4′-yl)amino)-1-methylcyclohexan-1-ol] | –
11 | 0.2 nM | 0.1 nM | 12.4 nM | 0.6 nM | 0.2 nM | 0.4 nM | – | 0.5 nM | > 10000 nM | 3 nM | – | C[C@]1(O)CC[C@@H](Nc2cc(Nc3ccnc(-c4cnn(S(=O)(=O)C5CC5)c4)n3)ncc2-c2ccc(C#N)cn2)CC1 [Example 7, 6′-((2-(1-(Cyclopropylsulfonyl)-1H-pyrazol-4-yl)pyrimidin-4-yl)amino)-4′-(((1s,4s)-4-hydroxy-4-methylcyclohexyl)amino)-[2,3′-bipyridine]-5-carbonitrile] | –
12 | 0.2 nM | 0.1 nM | 6.3 nM | 0.4 nM | 0.2 nM | 0.4 nM | 0.7 nM | 0.4 nM | 8890 nM | 1 nM | – | Cc1ccc(-c2cnc(Nc3ccnc(-c4cnn(S(=O)(=O)C5CC5)c4)n3)cc2N[C@H]2CC[C@@](C)(O)CC2)nc1 [Example 8, (1s,4s)-4-((6′-((2-(1-(Cyclopropylsulfonyl)-1H-pyrazol-4-yl)pyrimidin-4-yl)amino)-5-methyl-[2,3′-bipyridin]-4′-yl)amino)-1-methylcyclohexan-1-ol] | –
13 | 0.5 nM | 0.1 nM | 1 nM | 1 nM | 0.4 nM | 0.4 nM | – | – | > 10000 nM | 6.9 nM | – | COc1ccc(-c2cnc(Nc3ccnc(-c4cnn(S(=O)(=O)C5CC5)c4)n3)cc2N[C@H]2CC[C@@](C)(O)CC2)nn1 [Example 53, (1s,4s)-4-((2-((2-(1-(Cyclopropylsulfonyl)-1H-pyrazol-4-yl)pyrimidin-4-yl)amino)-5-(6-methoxypyridazin-3-yl)pyridin-4-yl)amino)-1-methylcyclohexan-1-ol] | –
14 | – | 0.5 nM | – | 95.8 nM | – | – | – | 41.2 nM | – | > 10000 nM | – | C[C@]1(O)CC[C@@H](Nc2cc(Nc3ccnc(-c4cnn(S(=O)(=O)C5CC5)c4)n3)ncc2-c2cnc(OC(F)F)cn2)CC1 [Example 128, (1s,4s)-4-((2-((2-(1-(Cyclopropylsulfonyl)-1H-pyrazol-4-yl)pyrimidin-4-yl)amino)-5-(5-(difluoromethoxy)pyrazin-2-yl)pyridin-4-yl)amino)-1-methylcyclohexan-1-ol] | –
